Results: the NIST ThermoML archive (doi:10.1016/j.jct.2014.04.022)
Where “and” joins values, the source holds several entries; their conditions need not be identical. Equal entries are not always repeated.

Key:
[1] = Liquid
[2] = molar heat capacity at constant pressure; details: 101.33 kPa, Liquid

CC1=CC[C@@H]2[C@H](C1)C2(C)C [(+)-3-carene]
Details	molar heat capacity at constant pressure [J/K/mol]	vapor or sublimation pressure
[1], 238.2 K, Closed cell (Static) method	–	0.00159 kPa and 0.001592 kPa and 0.001594 kPa
[1], 243.2 K, Closed cell (Static) method	–	0.002721 kPa and 0.002723 kPa
[1], 248.15 K, Closed cell (Static) method	–	0.004526 kPa and 0.004529 kPa
[1], 253.15 K, Closed cell (Static) method	–	0.007382 kPa and 0.007383 kPa and 0.007377 kPa
[1], 258.15 K, Closed cell (Static) method	–	0.01179 kPa and 0.0118 kPa
[1], 263.15 K, Closed cell (Static) method	–	0.01845 kPa and 0.01846 kPa
[1], 268.15 K, Closed cell (Static) method	–	0.02832 kPa and 0.02833 kPa
[1], 273.15 K, Closed cell (Static) method	–	0.04266 kPa and 0.04267 kPa
[1], 273.65 K, Closed cell (Static) method	–	0.0444 kPa and 0.04442 kPa and 0.04443 kPa
[1], 278.15 K, Closed cell (Static) method	–	0.06318 kPa and 0.06319 kPa
[1], 283.15 K, Closed cell (Static) method	–	0.09204 kPa and 0.09205 kPa
[1], 288.15 K, Closed cell (Static) method	–	0.1321 kPa
[1], 293.15 K, Closed cell (Static) method	–	0.1868 kPa
[1], 298.15 K, Closed cell (Static) method	–	0.2604 kPa and 0.2605 kPa
[1], 303.15 K, Closed cell (Static) method	–	0.3585 kPa
[1], 308.15 K, Closed cell (Static) method	–	0.4873 kPa
[2], 260.1 K, Large sample (1 g) DSC	236.9	–
[2], 265 K, Large sample (1 g) DSC	239.2	–
[2], 270 K, Large sample (1 g) DSC	241.6	–
[2], 275 K, Large sample (1 g) DSC	244.1	–
[2], 280 K, Large sample (1 g) DSC	246.3	–
[2], 285 K, Large sample (1 g) DSC	248.4	–
[2], 290 K, Large sample (1 g) DSC	250.6	–
[2], 295 K, Large sample (1 g) DSC	252.6	–
[2], 300 K, Large sample (1 g) DSC	254.8	–
[2], 305 K, Large sample (1 g) DSC	257.2	–
[2], 310 K, Large sample (1 g) DSC	259.6	–

Details	molar heat capacity at constant pressure [J/K/mol]	vapor or sublimation pressure
[1], 273.15 K	–	0.04241 kPa and 0.04243 kPa and 0.04244 kPa
[1], 278.15 K	–	0.06282 kPa and 0.06283 kPa
[1], 283.15 K	–	0.09152 kPa and 0.09153 kPa and 0.09154 kPa
[1], 288.15 K	–	0.1313 kPa
[1], 293.15 K	–	0.1855 kPa
[1], 298.15 K	–	0.2584 kPa and 0.2585 kPa
[1], 303.15 K	–	0.3553 kPa
[1], 308.15 K	–	0.4825 kPa
[2], 258.1 K	235.6	–
[2], 263.2 K	237.8	–
[2], 268.3 K	240.2	–
[2], 273.4 K	242.4	–
[2], 278.5 K	244.9	–
[2], 283.6 K	247.2	–
[2], 288.7 K	249.6	–
[2], 293.8 K	251.9	–
[2], 298.9 K	254.3	–
[2], 304 K	256.6	–
[2], 309.1 K	259	–
[2], 314.2 K	261.4	–
[2], 319.4 K	263.7	–
[2], 324.5 K	266.3	–
[2], 329.6 K	268.9	–
[2], 334.7 K	271.5	–
[2], 339.8 K	274	–
[2], 344.9 K	276.6	–
[2], 350 K	279.3	–
[2], 355.1 K	281.8	–

C[C@H]1CC[C@H]2C[C@@H]1C2(C)C [(-)-trans-pinane]
Details	molar heat capacity at constant pressure [J/K/mol]	vapor or sublimation pressure
[1], 238.15 K, Closed cell (Static) method	–	0.002871 kPa and 0.002872 kPa
[1], 243.15 K, Closed cell (Static) method	–	0.004792 kPa and 0.004794 kPa
[1], 248.15 K, Closed cell (Static) method	–	0.007832 kPa and 0.007836 kPa and 0.007837 kPa
[1], 253.15 K, Closed cell (Static) method	–	0.0125 kPa
[1], 258.15 K, Closed cell (Static) method	–	0.01954 kPa
[1], 263.15 K, Closed cell (Static) method	–	0.02999 kPa and 0.03 kPa
[1], 268.15 K, Closed cell (Static) method	–	0.04518 kPa and 0.0452 kPa
[1], 273.15 K, Closed cell (Static) method	–	0.06684 kPa and 0.06685 kPa and 0.06686 kPa
[1], 273.65 K, Closed cell (Static) method	–	0.06947 kPa
[1], 278.15 K, Closed cell (Static) method	–	0.09731 kPa and 0.09732 kPa
[1], 283.15 K, Closed cell (Static) method	–	0.1394 kPa
[1], 288.15 K, Closed cell (Static) method	–	0.1968 kPa
[1], 293.15 K, Closed cell (Static) method	–	0.2741 kPa
[1], 298.15 K, Closed cell (Static) method	–	0.3766 kPa and 0.3767 kPa
[1], 303.15 K, Closed cell (Static) method	–	0.5114 kPa
[1], 308.15 K, Closed cell (Static) method	–	0.6862 kPa and 0.6863 kPa
[2], 258.1 K, Large sample (1 g) DSC	227.6	–
[2], 263.2 K, Large sample (1 g) DSC	230.3	–
[2], 268.3 K, Large sample (1 g) DSC	233.4	–
[2], 273.4 K, Large sample (1 g) DSC	236.3	–
[2], 278.5 K, Large sample (1 g) DSC	239.3	–
[2], 283.6 K, Large sample (1 g) DSC	242.3	–
[2], 288.7 K, Large sample (1 g) DSC	245.3	–
[2], 293.8 K, Large sample (1 g) DSC	248.3	–
[2], 298.9 K, Large sample (1 g) DSC	251.3	–
[2], 304 K, Large sample (1 g) DSC	254.3	–
[2], 309.1 K, Large sample (1 g) DSC	257.4	–
